Structures can show the parent of a compound that is named as a salt.

The target in the assay is CK2A1 (CK2α/β) (Homo sapiens, UniProt P68400). In words: CK2 kinase assay, CK2A1 (CK2α/β). In kind it is biochemical. Particulars: Table A; read-out: CK2A1 (CK2α/β) (IC50).
Sequence of CK2A1 (CK2α/β) (P68400 whole entry, species assumed): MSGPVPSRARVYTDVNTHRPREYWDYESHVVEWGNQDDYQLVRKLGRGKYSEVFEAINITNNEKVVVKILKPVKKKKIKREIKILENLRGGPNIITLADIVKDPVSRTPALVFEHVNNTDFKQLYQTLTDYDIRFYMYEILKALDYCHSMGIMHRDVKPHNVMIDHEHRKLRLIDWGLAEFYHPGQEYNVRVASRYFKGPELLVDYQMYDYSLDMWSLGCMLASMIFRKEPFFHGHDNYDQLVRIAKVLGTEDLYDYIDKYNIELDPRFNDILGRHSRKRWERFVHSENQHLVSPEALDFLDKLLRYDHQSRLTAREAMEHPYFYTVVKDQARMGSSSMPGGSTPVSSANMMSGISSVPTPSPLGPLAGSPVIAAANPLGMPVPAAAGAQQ
Sequence of CK2A1 (CK2α/β) (P67870 whole entry partner, species assumed): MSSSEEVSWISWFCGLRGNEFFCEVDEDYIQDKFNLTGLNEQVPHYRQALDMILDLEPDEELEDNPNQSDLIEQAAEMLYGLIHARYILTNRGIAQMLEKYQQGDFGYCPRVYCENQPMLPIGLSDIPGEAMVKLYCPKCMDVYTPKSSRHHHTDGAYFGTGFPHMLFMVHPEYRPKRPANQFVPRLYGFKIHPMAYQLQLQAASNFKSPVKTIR
Consider `C[C@H]1CC(CN2CCN(c3cc(C#N)cc(Nc4nc(NC5CC5)c5ncc(C#N)n5n4)c3Cl)CC2)O1` (stereo partly drawn) [Example 529, 2-((2-chloro-5-cyano-3-(4-(((4S)-4-methyloxetan-2-yl)methyl)piperazin-1-yl)phenyl)amino)-4-(cyclopropylamino)imidazo[2,1-f][1,2,4]triazine-7-carbonitrile], for which the IC50 came out at 1.33 nM. Take `N#Cc1cc(Nc2nc(NC3CC3)c3ncc(C#N)n3n2)c(Cl)c(N2CCN(C(=O)CCn3ccnc3)CC2)c1` [Example 98]: the IC50 amounted to 0.36 nM. Take `N#Cc1cc(Nc2nc(NC3CC3)c3ncc(C#N)n3n2)c(Cl)c(N2CCC(N[C@@H]3CCCC[C@@H]3F)CC2)c1` (racemic) [Example 127, (+/−) 2-(2-chloro-5-cyano-3-(4-((1R,2R)-2-fluorocyclohexylamino)piperidin-1-yl)phenylamino)-4-(cyclopropylamino)imidazo [1,2-f][1,2,4]triazine-7-carbonitrile]: the IC50 came out at 0.62 nM. As for `CN1CCCN(C2CN(c3cc(C#N)cc(Nc4nc(NC5CC5)c5ncc(C#N)n5n4)c3Cl)C2)CC1` [Example 29, 2-((2-chloro-5-cyano-3-(3-(4-methyl-1,4-diazepan-1-yl)-1-azetidinyl)phenyl)amino)-4-(cyclopropylamino)imidazo [2,1-f][1,2,4]triazine-7-carbonitrile], the IC50 amounted to 0.31 nM. Regarding `CS(=O)(=O)CC(=O)N1CC(N2CCN(c3cc(C#N)cc(Nc4nc(NC5CC5)c5ncc(C#N)n5n4)c3Cl)CC2)C1` [Example 486, 2-[(2-chloro-5-cyano-3-{4-[1-(2-methanesulfonylacetyl)azetidin-3-yl]piperazin-1-yl}phenyl)amino]-4-(cyclopropylamino)imidazo[2,1-f][1,2,4]triazine-7-carbonitrile], the IC50 came out at 1.61 nM. Consider `C[C@@H](O)Cn1nc(C#N)c2cc(Nc3nc(NC4CC4)c4ncc(C#N)n4n3)ccc21` [Example 393, (R)-2-((3-cyano-1-(2-hydroxypropyl)-1H-indazol-5-yl)amino)-4-(cyclopropylamino)imidazo[2,1-f][1,2,4]triazine-7-carbonitrile, HCl], for which the IC50 amounted to 0.43 nM. Take `CN(C)C(=O)C1CN(c2cc(C#N)cc(Nc3nc(NC4CC4)c4ncc(C#N)n4n3)c2Cl)CCN1CC(O)CF` (single isomer, unassigned) [Example 316, (+/−) 4-(2-chloro-5-cyano-3-((7-cyano-4-(cyclopropylamino)imidazo [2,1-f][1,2,4]triazin-2-yl)amino)phenyl)-1-(3-fluoro-2-hydroxypropyl)-N,N-dimethyl-2-piperazinecarboxamide]: the IC50 worked out at 1.87 nM. With `N#Cc1cc(Nc2nc(NC3CC3)c3ncc(C#N)n3n2)c(Cl)c(C2CCN(CC(F)F)CC2)c1` [Example 212, 2-(2-chloro-5-cyano-3-(1-(2,2-difluoroethyl)piperidin-4-yl)phenylamino)-4-(cyclopropylamino)imidazo[1,2-f][1,2,4]triazine-7-carbonitrile], the IC50 worked out at 0.78 nM.

As for `COC(=O)N[C@@H]1CCN(c2cc(C(F)F)cc(Nc3nc(NC4CC4)c4ncc(C#N)n4n3)c2Cl)C[C@H]1O` [Example 243, methyl (3R,4R)-1-(2-chloro-3-(7-cyano-4-(cyclopropylamino)imidazo[1,2-f][1,2,4]triazin-2-ylamino)-5-(difluoromethyl)phenyl)-3-hydroxypiperidin-4-ylcarbamate], the IC50 stood at 2.08 nM. As for `C[C@H]1OCC[C@@H]1NC1CCN(c2cc(C#N)cc(Nc3nc(NC4CC4)c4ncc(C#N)n4n3)c2Cl)CC1` (racemic) [Example 122, (+/−) 2-((2-chloro-5-cyano-3-(4-(((2R,3S)-2-methyltetrahydro-3-furanyl)amino)-1-piperidinyl)phenyl)amino)-4-(cyclopropylamino)imidazo [2,1-f][1,2,4]triazine-7-carbonitrile], the IC50 was determined as 0.8 nM. The value for `CC1(CN2CCC(c3cc(C#N)cc(Nc4nc(NC5CC5)c5ncc(C#N)n5n4)c3Cl)CC2)COC1` [Example 225, 2-((2-chloro-5-cyano-3-(1-((3-methyl-3-oxetanyl)methyl)-4-piperidinyl)phenyl)amino)-4-(cyclopropylamino)imidazo[2,1-f][1,2,4]triazine-7-carbonitrile] was 2 nM; that for `CC1(O)CN([C@@H]2CCN(c3cc(C#N)cc(Nc4nc(NC5CC5)c5ncc(C#N)n5n4)c3Cl)C2)C1` [Example 47, (R)-2-(2-chloro-5-cyano-3-(3-(3-hydroxy-3-methylazetidin-1-yl)pyrrolidin-1-yl)phenylamino)-4-(cyclopropylamino)imidazo [1,2-f][1,2,4]triazine-7-carbonitrile] was 1.73 nM; that for `CC1CN(C2CCN(c3cc(C#N)cc(Nc4nc(NC5CC5)c5ncc(C#N)n5n4)c3Cl)CC2)CC(C)O1` (racemic) [Example 109, (+/−) 2-((2-chloro-5-cyano-3-(4-(2,6-dimethyl-4-morpholinyl)-1-piperidinyl)phenyl)amino)-4-(cyclopropylamino)imidazo [2,1-f][1,2,4]triazine-7-carbonitrile] was 4.09 nM. For `CCNc1nc(Nc2cc(C#N)cc(N3CCC(NC)C3)c2Cl)nn2c(C#N)cnc12` (racemic) [Example 362, (+/−) 2-((2-chloro-5-cyano-3-(3-(methylamino)-1-pyrrolidinyl)phenyl)amino)-4-(ethylamino)imidazo[2,1-f][1,2,4]triazine-7-carbonitrile], the IC50 turned out to be 0.84 nM. Consider `CCNc1nc(Nc2cc(C#N)cc(N3CC(C)[C@H](NC(=O)OC)C3)c2Cl)nn2c(C#N)cnc12` (stereo in doubt) [Example 336, methyl ((3S,4R)-1-(2-chloro-5-cyano-3-((7-cyano-4-(ethylamino)imidazo[2,1-f][1,2,4]triazin-2-yl)amino)phenyl)-4-methyl-3-pyrrolidinyl)carbamate], for which the IC50 is 0.74 nM. With `N#Cc1cc(Nc2nc(NC3CC3)c3ncc(C#N)n3n2)c(Cl)c(N2CCN3C[C@H](O)C[C@@H]3C2)c1` (racemic) [Example 435, (+/−)-2-((2-chloro-5-cyano-3-((7R,8aR)-7-hydroxyhexahydropyrrolo[1,2-a]pyrazin-2(1H)-yl)phenyl)amino)-4-(cyclopropylamino)imidazo[2,1-f][1,2,4]triazine-7-carbonitrile] the figure was 1.13 nM. With `CC1(C)CC(CN2CCN(c3cc(C#N)cc(Nc4nc(NC5CC5)c5ncc(C#N)n5n4)c3Cl)CC2)O1` (centres unmarked) [Example 527, 2-((2-chloro-5-cyano-3-(4-((4,4-dimethyloxetan-2-yl)methyl)piperazin-1-yl)phenyl)amino)-4-(cyclopropylamino)imidazo[2,1-f][1,2,4]triazine-7-carbonitrile] the figure was 1.91 nM; with `N#Cc1cc(Nc2nc(NC3CC3)c3ncc(C#N)n3n2)c(Cl)c(N2CC[C@@H](NC3COC3)C2)c1` [Example 44, 2-((2-chloro-5-cyano-3-((3R)-3-(3-oxetanylamino)-1-pyrrolidinyl)phenyl)amino)-4-(cyclopropylamino)imidazo [2,1-f][1,2,4]triazine-7-carbonitrile], 0.33 nM; with `N#Cc1cnc2c(NC3CC3)nc(Nc3cc(C(F)F)cc(N4CCOCC4)c3Cl)nn12` [Example 275, 2-((2-chloro-5-(difluoromethyl)-3-(4-morpholinyl)phenyl)amino)-4-(cyclopropylamino)imidazo[2,1-f][1,2,4]triazine-7-carbonitrile], 3.36 nM.

In the case of `CCNc1nc(Nc2cc(C#N)cc(N3CCC4(CC3)CN(C)C(=O)O4)c2Cl)nn2c(C#N)cnc12` (racemic) [Example 781, (+/−)-2-((2-chloro-5-cyano-3-(3-methyl-2-oxo-1-oxa-3,8-diazaspiro[4.5]decan-8-yl)phenyl)amino)-4-(ethylamino)imidazo[2,1-f][1,2,4]triazine-7-carbonitrile], the IC50 is 0.71 nM. Consider `CO[C@@H]1CN(c2cc(C#N)cc(Nc3nc(NC4CC4)c4ncc(C#N)n4n3)c2Cl)CC[C@H]1N` (racemic) [Example 188, (+/−)-2-((3-((3R,4R)-4-amino-3-methoxypiperidin-1-yl)-2-chloro-5-cyanophenyl)amino)-4-(cyclopropylamino)imidazo[2,1-f][1,2,4]triazine-7-carbonitrile], for which the IC50 stood at 200 nM.

On to `N#Cc1cc(Nc2nc(NC3CC3)c3ncc(C#N)n3n2)c(Cl)c(C2CCN(CC3CC3)CC2)c1` [Example 215, 2-((2-chloro-5-cyano-3-(1-(cyclopropylmethyl)-4-piperidinyl)phenyl)amino)-4-(cyclopropylamino)imidazo[2,1-f][1,2,4]triazine-7-carbonitrile], for which the IC50 worked out at 0.62 nM. Consider `CC(C)(C)[C@@H](N)C(=O)N1CC(N2CCN(c3cc(C#N)cc(Nc4nc(NC5CC5)c5ncc(C#N)n5n4)c3Cl)CC2)C1` [Example 502, 2-{[3-(4-{1-[(2R)-2-amino-3,3-dimethylbutanoyl]azetidin-3-yl}piperazin-1-yl)-2-chloro-5-cyanophenyl]amino}-4-(cyclopropylamino)imidazo[2,1-f][1,2,4]triazine-7-carbonitrile], for which the IC50 came to 3.27 nM.

For the compound `N#Cc1cc(Nc2nc(NC3CC3)c3ncc(C#N)n3n2)c(Cl)c(N2CCC(N[C@@H]3CCCC[C@H]3F)CC2)c1` (racemic) [Example 128, (+/−)2-(2-chloro-5-cyano-3-(4-((1R,2S)-2-fluorocyclohexylamino)piperidin-1-yl)phenylamino)-4-(cyclopropylamino)imidazo [1,2-f][1,2,4]triazine-7-carbonitrile], the IC50 came to 4.77 nM. For the compound `CNC(=O)CN1CC2(CCN(c3cc(C#N)cc(Nc4nc(NC5CC5)c5ncc(C#N)n5n4)c3Cl)CC2)C1` [Example 799, 2-(7-(2-chloro-5-cyano-3-((7-cyano-4-(cyclopropylamino)imidazo[2,1-f][1,2,4]triazin-2-yl)amino)phenyl)-2,7-diazaspiro[3.5]nonan-2-yl)-N-methylacetamide], the IC50 is 2.46 nM. Regarding `N#Cc1cc(Nc2nc(NC3CC3)c3ncc(C#N)n3n2)c(Cl)c(N2CCN(CC(N)=O)CC2=O)c1` [Example 623, 2-(4-(2-chloro-5-cyano-3-((7-cyano-4-(cyclopropylamino)imidazo[2,1-f][1,2,4]triazin-2-yl)amino)phenyl)-3-oxopiperazin-1-yl)acetamide], the IC50 was 3.05 nM.

(Values after US9273057B2 (Bristol-Myers Squibb Company, priority 2012, dated 2016).)
